Our source for the IC50 values is ChEMBL document CHEMBL3392922, “MMV box screening in the Dd2 P. falciparum strain”.

This test concerns Plasmodium falciparum. Nature of the test: MMV: IC50 determined against P. falciparum Dd2-luc strain using a Malaria Sybr Green I Fluorescence assay. Starting conditions were 1% trophozoite synchronised parasites at 2% haematocrit. Fluorescence detection completed after 48hr incubation at 37 degrees C under 1% O2, 3% CO2 and balance N2. In kind it is functional, organism-based. The note with it: Dd2, 48 h.
`O=C(Nc1ccc(CN2CCOCC2)cc1)c1ccc(-c2ccc(Br)cc2)o1` gave an IC50 of 0.958 µM.

Compound `CCOC(=O)C1=C(C)N=c2sc(=Cc3cc(Cl)ccc3O)c(=O)n2C1c1ccc(OC)cc1` (stereo not drawn) returned a 50% inhibitory concentration (IC50) of 0.527 µM.

The compound `OC(CNC1CCCCC1)Cn1c2ccc(I)cc2c2cc(I)ccc21` (stereo not drawn) returned a concentration for half-maximal inhibition (IC50) of 0.436 µM.

`Clc1cc(Br)ccc1-c1ccc(CNCC2CCNCC2)o1`: the midpoint of inhibition, the IC50, lay at 0.596 µM.

Take `CCCc1c(C)nc2ccccc2c1O`: the half-maximal inhibitory concentration (IC50) came out at 0.637 µM.

`CCCCc1ccc(NS(=O)(=O)c2cc3c4c(c2)CCN4C(=O)CC3)cc1` displayed a 50% inhibitory concentration (IC50) of 3.68 µM.

In the case of `Cc1ccnc(NC(c2cccc(OCc3ccccc3)c2)c2ccc3cccnc3c2O)c1` (stereo not drawn), half-maximal inhibition (IC50) required 0.963 µM.

The compound `CCOc1ccc(-c2nonc2NC(=O)c2cccc(C)c2)cc1OCC` showed an IC50 of 0.154 µM.

`CCOC(=O)C1=C(C)N=c2sc(=Cc3ccccc3O)c(=O)n2C1c1ccc(OC)c2ccccc12` (stereo not drawn): half-maximal inhibition (IC50) was put at 1.52 µM.

For `CCOc1cc2c(cc1OCC)C(c1cc(Cl)ccc1O)NCC2` (stereo not drawn), the half-inhibitory concentration (IC50) was 1.7 µM.

The compound `COc1cccc(Nc2nc(N)c3ccccc3n2)c1` returned a concentration for half-maximal inhibition (IC50) of 3.11 µM.

In turn, `CCN(CC)CCNc1ccnc2cc3ccccc3cc12` displayed an IC50 of 0.465 µM. Compared with the last compound, the IC50 is about 6.7-fold lower.

Compound `CCOc1cc(Cl)c(C(C)NC(=O)c2cccc(OC)c2)cc1OCC` (stereo not drawn) showed an IC50 of 0.649 µM.

On to `COc1ccc2c(=O)cc(C(Cl)(Cl)Cl)oc2c1`, for which half-maximal inhibition (IC50) was put at 0.959 µM.

As to `CCC(=O)Nc1nnc(Cc2ccc(OC)c(OC)c2)s1`, the concentration for half-maximal inhibition (IC50) came out at 0.705 µM.

In turn, `c1ccc(CNc2nc(Nc3ccccc3)nc3ccccc23)cc1` showed a half-inhibitory concentration (IC50) of 0.897 µM.

As for `O=C1CC(O)(C(F)(F)C(F)(F)F)Oc2ccccc21` (stereo not drawn), 1.03 µM corresponded to half-maximal inhibition (IC50).

In turn, `Cc1ccc(-c2cc(C(=O)Nc3ccc(S(=O)(=O)N4CCCCC4)cc3)[nH]n2)c(O)c1` had an IC50 of 2.35 µM. Against the preceding compound, the IC50 is about 2.3-fold higher.

Regarding `CCCn1c(=N)c(C(=O)NC2CCCCC2)cc2c(=O)n3cccc(C)c3nc21`, the IC50 was 1.64 µM.

`COc1ccc(-c2nc(NC(=O)CS(=O)(=O)c3ccc(F)cc3)sc2C)cc1` yielded an IC50 of 0.515 µM.

With `c1ccc2c(NCCc3c[nH]c4ccccc34)c3ccccc3nc2c1`, the half-inhibitory concentration (IC50) is 0.2 µM.

In the case of `COc1ccc(Nc2nc(NCc3ccccc3)c3ccccc3n2)cc1`, half-maximal inhibition (IC50) was put at 0.0906 µM.

On to `CCOc1cccc(C(=O)Nc2ccc(-c3nc4ccccc4[nH]3)cc2)c1`, for which the half-maximal inhibitory concentration (IC50) came to 1.21 µM.

Compound `Cc1cc(N2CCN(C3CCCC3)CC2)n2c(nc3ccccc32)c1C#N` registered an IC50 of 0.915 µM.

Compound `CCOc1ccc2c(c1)CN(Cc1ccc(Cl)cc1)CO2` came in with an IC50 of 0.617 µM.

As for `CCOc1ccc(N2C(N)=NC(N)=NC2(C)C)cc1`, half-maximal inhibition (IC50) was put at 8.13 µM.

`CN(C)CCCNc1c2ccccc2nc2ccccc12` registered an IC50 of 0.237 µM.

The compound `O=C(NC(c1ccccc1)c1ccc2cccnc2c1O)c1ccccc1` (stereo not drawn) showed an IC50 of 0.426 µM.

On to `Cc1cc(NC(=O)c2ccc(-c3ccccc3)cc2)no1`, for which the IC50 was determined as 0.775 µM.

`CC(NCc1ccccc1)c1cc(Cl)ccc1O` (stereo not drawn) had an IC50 of 0.498 µM.

Compound `COc1ccc(C2C(C(=O)Nc3cccc(OC)c3)c3ccccc3C(=O)N2C2CCCCC2)cc1` (stereo not drawn) gave an IC50 of 2.34 µM.

Regarding `COc1cccc(Cn2c(Oc3ccccc3)nc3c2c(=O)n(C)c(=O)n3C)c1`, the IC50 is 1.15 µM.

In turn, `O=C(Nc1ccsc1C(=O)NC1CCCCC1)c1ccc(F)cc1` displayed a half-maximal inhibitory concentration (IC50) of 1.04 µM. The IC50 values of the last two compounds are within 1.5-fold of each other.

`FC(F)(F)c1cccc(Nc2nc(-c3ccccc3)nc3ncccc23)c1` had an IC50 of 0.885 µM.

In the case of `CCOc1cc2c(cc1OCC)C(c1cc(Cl)c(O)c(OCC)c1)NCC2` (stereo not drawn), the IC50 was determined as 1.61 µM.

With `CC1=C(CC(=O)c2cccc([N+](=O)[O-])c2)C(=O)c2ccccc2C1=O`, the IC50 worked out at 0.129 µM.

For `C=CC12CCN(CC1)C(C(O)c1ccnc3ccc(OC)cc13)C2` (stereo not drawn), 0.418 µM corresponded to half-maximal inhibition (IC50).

Compound `COc1ccc2nc(C)cc(Nc3ccccc3O)c2c1` gave a 50% inhibitory concentration (IC50) of 1.1 µM.

Regarding `Fc1ccc2[nH]c3c(NCCCN4CCOCC4)ncnc3c2c1`, the IC50 was 0.335 µM.

Regarding `CCCCN(CCCC)S(=O)(=O)c1ccc(NC(=O)c2ccco2)cc1`, the 50% inhibitory concentration (IC50) was 1.16 µM.

`CCCCCCC(O)(c1ccc(F)cc1)C(CN1CCOCC1)c1ccccc1` (stereo not drawn) yielded an IC50 of 3.42 µM.

`OCCNc1nc(Nc2ccc(Cl)c(Cl)c2)nc2ccccc12` yielded an IC50 of 0.419 µM.

In turn, `COc1cccc(C(=O)Nc2ccc(-c3nc4ccccc4[nH]3)cc2)c1` displayed a concentration for half-maximal inhibition (IC50) of 0.832 µM.

Take `COc1ccc(CN2CCCC(C(=O)c3ccc(C(F)(F)F)cc3)C2)c(O)c1` (stereo not drawn): the half-maximal inhibitory concentration (IC50) was 0.635 µM.

`CN(C)c1ccc(N=Cc2ccc(N3CCOCC3)cc2)cc1`: the IC50 is 0.345 µM.

In the case of `O=C(NCC1Cc2cccc(-c3ccncc3)c2O1)c1csc2c1CCCC2` (stereo not drawn), the concentration for half-maximal inhibition (IC50) was 1.69 µM.

For the compound `COc1ccc2nc(N)nc(C)c2c1`, the IC50 came to 1.87 µM.

In the case of `COc1cc(OC)c(N(C)C(=O)c2cc3c(s2)-c2ccccc2S(=O)(=O)C3)cc1Cl`, half-maximal inhibition (IC50) was put at 0.298 µM.

`CCN(CC)CCCNc1nc(-c2ccc(Cl)cc2)nc2ccccc12`: 0.425 µM corresponded to half-maximal inhibition (IC50).

Compound `CCOc1ccc(Nc2c3ccccc3nc3ccccc23)cc1` registered an IC50 of 1.67 µM.

As for `Cc1ccc(-c2cc3c(nn2)-c2ccccc2C3=O)cc1`, the IC50 was determined as 1.26 µM. The IC50 values of the last two compounds are within 1.5-fold of each other.

Turning to `O=C(CCc1ccco1)NC1CCN(CC2(c3ccc(Cl)cc3)CCC2)CC1`, the IC50 came out at 1.03 µM.

Take `CC1CC(C)CN(C(=O)c2ccc(Cl)cc2Cl)C1` (stereo not drawn): the IC50 is 1.88 µM.

Turning to `O=C(Nc1ccccc1O)c1ccc(Oc2cccc(C(=O)Nc3ccccc3O)c2)cc1`, the half-maximal inhibitory concentration (IC50) was 0.202 µM.

As for `COc1cc(C(=O)ON=C(N)Cc2cccc3ccccc23)cc(OC)c1OC`, the IC50 came out at 3.95 µM.

For the compound `O=c1cc(NC2CCN(CCCc3ccccc3)CC2)c2cc(Cl)ccc2o1`, inhibition was half-maximal at 0.543 µM (IC50).

Consider `CNCCCNc1ccnc2cc(Cl)ccc12`, for which the 50% inhibitory concentration (IC50) turned out to be 0.437 µM. This IC50 and that of the compound before are within 1.5-fold of each other.

With `Nc1ccc(-c2nc3cc(Oc4ccc(Oc5ccc6[nH]c(-c7ccc(N)cc7)nc6c5)cc4)ccc3[nH]2)cc1`, the concentration for half-maximal inhibition (IC50) worked out at 0.315 µM.

Consider `CC(=O)Nc1nnc(SCc2c(C)cc(C(C)(C)C)cc2C)s1`, for which the concentration for half-maximal inhibition (IC50) was found to be 0.794 µM.

The compound `CCN(CC)S(=O)(=O)c1ccc(-c2csc(Nc3ccc(C)c(C)c3)n2)cc1` returned an IC50 of 0.933 µM.

Take `COc1ccc(CCNC(=O)c2cc(S(=O)(=O)N3CC(C)CC(C)C3)ccc2Sc2ccc(F)cc2)cc1OC` (stereo not drawn): 1.33 µM corresponded to half-maximal inhibition (IC50). This IC50 and that of the compound before are within 1.5-fold of each other.

As for `COCCn1c(C)nc2ccccc2c1=O`, the half-maximal inhibitory concentration (IC50) is 0.93 µM.

The compound `CC(C)=CCN1CCC(C(=O)Nc2ccc(-c3nc4ccccc4[nH]3)cc2)CC1` had a concentration for half-maximal inhibition (IC50) of 1.24 µM.

`Cc1ccc(C)c(-c2csc(Nc3ccc(C)c(C)c3)n2)c1` displayed an IC50 of 1.05 µM.

Take `COc1ccc(C2Sc3ccccc3N=C3C2=C(O)c2ccccc23)cc1` (stereo not drawn): the IC50 came to 0.723 µM.

`CCOc1ccccc1CN1CCc2nc3cc(C(C)(C)C)nn3c(O)c2C1` had a half-inhibitory concentration (IC50) of 1.23 µM. Against the preceding compound, the IC50 is about 1.7-fold higher.

For the compound `CCN(CC)c1cc(C)c2cc(NC(=O)c3cccc(OC)c3)ccc2n1`, half-maximal inhibition (IC50) required 2.77 µM.

The compound `COc1ccc(C(O)(CCC(C)C)C(CN2CCOCC2)c2ccc(Cl)cc2)cc1` (stereo not drawn) displayed an IC50 of 3.55 µM.

In the case of `COc1ccccc1CNC(=O)CCn1c(=O)[nH]c2ccsc2c1=O`, the midpoint of inhibition, the IC50, lay at 0.977 µM. This IC50 is about 3.6-fold lower than that of the compound before.

Regarding `Cc1cc(C)c2c(c1)OCN(Cc1ccccc1Cl)C2`, the half-maximal inhibitory concentration (IC50) came out at 0.297 µM. Against the preceding compound, the IC50 is about 3.3-fold lower.

Turning to `Cc1cc(C)cc(Nc2cc(C)nc3nc(C(F)(F)F)nn23)c1`, 0.137 µM corresponded to half-maximal inhibition (IC50).

In turn, `CCOc1cccc2sc(N(Cc3cccnc3)C(=O)C3CCCCC3)nc12` displayed an IC50 of 2.7 µM. This IC50 lies about 20-fold higher than the previous one.

Regarding `CCOc1ccc(CCNC(=O)c2cccs2)cc1OCC`, 2.72 µM corresponded to half-maximal inhibition (IC50).
